Data: patent US20230087118A1, “IMIDAZO[1,2-a][sequence] DERIVATIVES AND THEIR USE IN THE TREATMENT OF DISEASE” (priority 2019, published 2023)
Structures can show the parent of a compound that is named as a salt.

Molecular target: T1, IRAK4 (Homo sapiens, UniProt Q9NWZ3)
T1 sequence (Q9NWZ3 1-460): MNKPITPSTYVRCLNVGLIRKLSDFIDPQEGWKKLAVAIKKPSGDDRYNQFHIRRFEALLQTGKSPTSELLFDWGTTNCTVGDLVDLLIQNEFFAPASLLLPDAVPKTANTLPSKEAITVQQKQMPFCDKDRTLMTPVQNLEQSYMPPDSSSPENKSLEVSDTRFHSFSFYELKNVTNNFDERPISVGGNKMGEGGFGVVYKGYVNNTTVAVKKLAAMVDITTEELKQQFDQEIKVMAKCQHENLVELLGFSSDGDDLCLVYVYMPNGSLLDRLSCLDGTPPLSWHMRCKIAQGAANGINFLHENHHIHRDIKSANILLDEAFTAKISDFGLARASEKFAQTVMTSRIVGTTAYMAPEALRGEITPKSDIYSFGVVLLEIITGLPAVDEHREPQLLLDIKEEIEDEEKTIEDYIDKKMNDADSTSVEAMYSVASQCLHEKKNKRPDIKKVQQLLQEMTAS
Test: biochemical
Settings: not given

Question: With Cc1cnc2c(NC(=O)c3cn4cc(C56COC(C)(C5)C6)nc4c(F)c3OC3CCC3)cnn2c1 [Example 256, 7-Cyclobutoxy-8-fluoro-2-(1-methyl-2-oxabicyclo[2.1.1]hexan-4-yl)-N-(6-methylpyrazolo[1,5-a]pyrimidin-3-yl)imidazo[1,2-a]pyridine-6-carboxamide] as the molecule, how does the IC50 read?
Answer: 0.0009 µM

Question: CC12CC(c3cn4cc(C(=O)Nc5ccn(CC#N)n5)c(OC5CCC5)cc4n3)(CO1)C2 [Example 527, N-(1-(cyanomethyl)-1H-pyrazol-3-yl)-7-cyclobutoxy-2-(1-methyl-2-oxabicyclo[2.1.1]hexan-4-yl)imidazo[1,2-a]pyridine-6-carboxamide] was tested. Which IC50 did it give?
Answer: 0.0044 µM

Question: How did the IC50 turn out when Cc1cnc2c(NC(=O)c3cn4cc(C56COC(C)(C5)C6)nc4cc3O[C@H](C)C3CC3)cnn2c1 (single isomer, unassigned) [Example 657] was run?
Answer: 0.0009 µM

Question: CC12CC(c3cn4cc(C(=O)Nc5cnc6cccnn56)c(OC5CCCC5)nc4n3)(CO1)C2 [Example 650, 7-(cyclopentyloxy)-N-(imidazo[1,2-b]pyridazin-3-yl)-2-(1-methyl-2-oxabicyclo[2.1.1]hexan-4-yl)imidazo[1,2-a]pyrimidine-6-carboxamide] was tested. Which IC50 did it give?
Answer: 0.0001 µM

Question: For CC(C)Oc1cc2nc([C@@]34CC[C@@](C)(C3)OC4)cn2cc1C(=O)Nc1cc(F)n(C)n1 (single isomer, unassigned) [Example 603], which IC50 is on record?
Answer: 0.0053 µM

Question: Cn1ccc(NC(=O)c2cn3cc(C45COC(C)(C4)C5)nc3nc2OCC2CC2)n1 [Example 370, 7-(Cyclopropylmethoxy)-N-(1-methyl-1H-pyrazol-3-yl)-2-(1-methyl-2-oxabicyclo[2.1.1]hexan-4-yl)imidazo[1,2-a]pyrimidine-6-carboxamide] was tested. Which IC50 did it give?
Answer: 0.0016 µM

Question: With COc1nscc1NC(=O)c1cn2cc(C34CCC(C)(C3)OC4)nc2cc1OC(C)C (stereo not shown) [Example 513, 7-Isopropoxy-N-(3-methoxyisothiazol-4-yl)-2-(1-methyl-2-oxabicyclo[2.2.1]heptan-4-yl)imidazo[1,2-a]pyridine-6-carboxamide] as the molecule, how does the IC50 read?
Answer: 0.0003 µM

Question: With O=C(Nc1cccc(C(F)F)n1)c1cn2cc(C3CCOCC3)nc2cn1 [Example 83] as the molecule, how does the IC50 read?
Answer: 0.264 µM

Question: For CC(C)Oc1cc2nc(C34COC(C)(C3)C4)cn2cc1C(=O)Nc1ccc(F)cn1 [Example 244], which IC50 is on record?
Answer: 0.0059 µM

Question: Which IC50 does the source give for CC(C)Oc1nc2nc(C34CCC(C)(CC3)OC4)cn2cc1C(=O)Nc1cnn2cccnc12 [Example 431] here?
Answer: 0.0008 µM

Question: For Cc1cccc(NC(=O)c2cn3cc(C45COC(C)(C4)C5)nc3cc2OC(C)C)n1 [Example 259, 7-Isopropoxy-2-(1-methyl-2-oxabicyclo[2.1.1]hexan-4-yl)-N-(6-methylpyridin-2-yl)imidazo[1,2-a]pyridine-6-carboxamide], which IC50 is on record?
Answer: 0.0005 µM

Question: With CC(C)Oc1cc2nc(C34COC(C)(C3)C4)c(F)n2cc1C(=O)Nc1cccn(C(F)F)c1=O [Example 326, N-(1-(difluoromethyl)-2-oxo-1,2-dihydropyridin-3-yl)-3-fluoro-7-isopropoxy-2-(1-methyl-2-oxabicyclo[2.1.1]hexan-4-yl)imidazo[1,2-a]pyridine-6-carboxamide] as the molecule, how does the IC50 read?
Answer: 0.0019 µM

Question: Which IC50 does the source give for COc1cc2nc(C3CCOCC3)cn2cc1C(=O)Nc1cccn(C)c1=O [Example 183] here?
Answer: 0.0069 µM

Question: CC12CCC(c3cn4cc(C(=O)Nc5ccn(C(F)F)n5)c(OC5CCC5)cc4n3)(CO1)C2 (stereo not shown) [Example 418, 7-Cyclobutoxy-N-(1-(difluoromethyl)-1H-pyrazol-3-yl)-2-(1-methyl-2-oxabicyclo[2.2.1]heptan-4-yl)imidazo[1,2-a]pyridine-6-carboxamide] was tested. Which IC50 did it give?
Answer: 0.0021 µM

Question: Which IC50 does the source give for CCOc1nc(C(=O)Nc2cccnc2OC(C)C)cn2cc(C34COC(C)(C3)C4)nc12 [Example 499, 8-Ethoxy-N-(2-isopropoxypyridin-3-yl)-2-(1-methyl-2-oxabicyclo[2.1.1]hexan-4-yl)imidazo[1,2-a]pyrazine-6-carboxamide] here?
Answer: 0.0017 µM

Question: With CC(C)Oc1nc2nc(C34COC(C)(C3)C4)cn2cc1C(=O)Nc1ccn(C(F)(F)F)n1 [Example 362, 7-Isopropoxy-2-(1-methyl-2-oxabicyclo[2.1.1]hexan-4-yl)-N-(1-(trifluoromethyl)-1H-pyrazol-3-yl)imidazo[1,2-a]pyrimidine-6-carboxamide] as the molecule, how does the IC50 read?
Answer: 0.0082 µM

Question: For COc1cccc(NC(=O)c2cn3cc(C45COC(C)(C4)C5)nc3cc2OC2CCC2)n1 [Example 529, 7-Cyclobutoxy-N-(6-methoxypyridin-2-yl)-2-(1-methyl-2-oxabicyclo[2.1.1]hexan-4-yl)imidazo[1,2-a]pyridine-6-carboxamide], which IC50 is on record?
Answer: 0.0003 µM

Question: How did the IC50 turn out when CC(C)Oc1nc2nc(C34COC(C)(C3)C4)cn2cc1C(=O)Nc1cccc(-c2cnoc2)n1 [Example 640, 7-Isopropoxy-N-(6-(isoxazol-4-yl)pyridin-2-yl)-2-(1-methyl-2-oxabicyclo[2.1.1]hexan-4-yl)imidazo[1,2-a]pyrimidine-6-carboxamide] was run?
Answer: 0.0007 µM

Question: Which IC50 does the source give for CC(C)Oc1nc2nc([C@@]34CC[C@@](C)(C3)OC4)cn2cc1C(=O)Nc1cnn2cccnc12 (single isomer, unassigned) [Example 612] here?
Answer: 0.0004 µM

Question: Which IC50 does the source give for Cc1cnc2c(NC(=O)c3cn4cc(C56COC(C)(C5)C6)nc4nc3OC3CCC3)cnn2c1 [Example 575, 7-Cyclobutoxy-2-(1-methyl-2-oxabicyclo[2.1.1]hexan-4-yl)-N-(6-methylpyrazolo[1,5-a]pyrimidin-3-yl)imidazo[1,2-a]pyrimidine-6-carboxamide] here?
Answer: 0.0007 µM

Question: For CC(C)Oc1nc2nc(C34COC(C)(C3)C4)cn2cc1C(=O)Nc1cccc(-c2cnco2)n1 [Example 368, 7-Isopropoxy-2-(1-methyl-2-oxabicyclo[2.1.1]hexan-4-yl)-N-(6-(oxazol-5-yl)pyridin-2-yl)imidazo[1,2-a]pyrimidine-6-carboxamide], which IC50 is on record?
Answer: 0.0002 µM

Question: For CC12CC(c3cn4cc(C(=O)Nc5cccn(C(F)F)c5=O)c(OC5CCOC5)cc4n3)(CO1)C2 (stereo not shown) [Example 443, N-(1-(difluoromethyl)-2-oxo-1,2-dihydropyridin-3-yl)-2-(1-methyl-2-oxabicyclo[2.1.1]hexan-4-yl)-7-((tetrahydrofuran-3-yl)oxy)imidazo[1,2-a]pyridine-6-carboxamide], which IC50 is on record?
Answer: 0.0017 µM

Question: Which IC50 does the source give for CC(C)Oc1cc2nc(C34CCC(C)(C3)OC4)cn2cc1C(=O)Nc1cccc(C(F)(F)F)c1 (stereo not shown) [Example 510, 7-Isopropoxy-2-(1-methyl-2-oxabicyclo[2.2.1]heptan-4-yl)-N-(3-(trifluoromethyl)phenyl)imidazo[1,2-a]pyridine-6-carboxamide] here?
Answer: 0.001 µM

Question: How did the IC50 turn out when COc1cc2nc(C34CCOC(C)(C3)C4)cn2cc1C(=O)Nc1cccc(C(F)F)n1 [Example 233] was run?
Answer: 0.0025 µM

Question: With CCC(C)Oc1nc2nc(C34COC(C)(C3)C4)cn2cc1C(=O)Nc1cnn2cc(C)cnc12 (single isomer, unassigned) [Example 642] as the molecule, how does the IC50 read?
Answer: 0.0013 µM

Question: CC(C)Oc1cc2nc(C34CCC(C)(C3)OC4)cn2cc1C(=O)Nc1cccn(C)c1=O (stereo not shown) [Example 505, 7-Isopropoxy-N-(1-methyl-2-oxo-1,2-dihydropyridin-3-yl)-2-(1-methyl-2-oxabicyclo[2.2.1]heptan-4-yl)imidazo[1,2-a]pyridine-6-carboxamide] was tested. Which IC50 did it give?
Answer: 0.0005 µM

Question: Which IC50 does the source give for O=C(Nc1cccc(C(F)F)n1)c1cn2cc(C3CC3)nc2cc1OC1CCC1 [Example 474, 7-Cyclobutoxy-2-cyclopropyl-N-(6-(difluoromethyl)pyridin-2-yl)imidazo[1,2-a]pyridine-6-carboxamide] here?
Answer: 0.0007 µM

Question: For CC12CC(c3cn4cc(C(=O)Nc5ccn(CC6CC6)n5)c(OC5CCC5)cc4n3)(CO1)C2 [Example 525, 7-Cyclobutoxy-N-(1-(cyclopropylmethyl)-1H-pyrazol-3-yl)-2-(1-methyl-2-oxabicyclo[2.1.1]hexan-4-yl)imidazo[1,2-a]pyridine-6-carboxamide], which IC50 is on record?
Answer: 0.0185 µM

Same assay, conditions: IRAK4 Biochemical Assay (1 mM ATP, 2 h) IC50 (μM), 1 mM ATP, 2 h, 100 pM IRAK4

Question: CC(C)Oc1cc2nc(C34COC(C)(C3)C4)c(F)n2cc1C(=O)Nc1cccc(C(F)F)n1 [Example 324, N-(6-(difluoromethyl)pyridin-2-yl)-3-fluoro-7-isopropoxy-2-(1-methyl-2-oxabicyclo[2.1.1]hexan-4-yl)imidazo[1,2-a]pyridine-6-carboxamide trifluoroacetate] was tested. Which IC50 did it give?
Answer: 0.002 µM

Question: How did the IC50 turn out when COc1nc(C(=O)Nc2ccccn2)cn2cc(C3CCOCC3)nc12 [Example 78] was run?
Answer: 0.0475 µM

Question: Which IC50 does the source give for CC(C)Oc1nc2nc(C34COC(C)(C3)C4)cn2cc1C(=O)Nc1cccc2c1OCC2 [Example 377, N-(2,3-dihydrobenzofuran-7-yl)-7-isopropoxy-2-(1-methyl-2-oxabicyclo[2.1.1]hexan-4-yl)imidazo[1,2-a]pyrimidine-6-carboxamide trifluoroacetate] here?
Answer: 0.0003 µM

Question: With CC(C)Oc1cc2nc(C3C4COCC43)cn2cc1C(=O)Nc1cccc(C(F)F)n1 (stereo not shown) [Example 253, 2-(3-Oxabicyclo[3.1.0]hexan-6-yl)-N-(6-(difluoromethyl)pyridin-2-yl)-7-isopropoxyimidazo[1,2-a]pyridine-6-carboxamide hydrochloride] as the molecule, how does the IC50 read?
Answer: 0.0004 µM

Question: How did the IC50 turn out when CC12CC(c3cn4cc(C(=O)Nc5cccn(C(F)F)c5=O)c(OCC5CC(F)(F)C5)cc4n3)(CO1)C2 [Example 448, 7-((3,3-Difluorocyclobutyl)methoxy)-N-(1-(difluoromethyl)-2-oxo-1,2-dihydropyridin-3-yl)-2-(1-methyl-2-oxabicyclo[2.1.1]hexan-4-yl)imidazo[1,2-a]pyridine-6-carboxamide] was run?
Answer: 0.0013 µM

Question: CC12CC(c3cn4cc(C(=O)Nc5cccn(C6CC6)c5=O)c(OC5CCC5)nc4n3)(CO1)C2 [Example 651, 7-Cyclobutoxy-N-(1-cyclopropyl-2-oxo-1,2-dihydropyridin-3-yl)-2-(1-methyl-2-oxabicyclo[2.1.1]hexan-4-yl)imidazo[1,2-a]pyrimidine-6-carboxamide] was tested. Which IC50 did it give?
Answer: 0.0005 µM
